Measured values from ChEMBL document CHEMBL3885881, “DrugMatrix”.

Species: Rattus norvegicus
Assay: DrugMatrix - Regimen: Daily Repeat
Format: toxicity, organism-based, Sprague-Dawley
Set-up: regimen Daily Repeat, gender Male, age 6-8 weeks
Details: in vivo, po, route oral GAVAGE, vehicle 100 % WATER; for ABSOLUTE BASOPHIL / ABSOLUTE EOSINOPHIL / ABSOLUTE LYMPHOCYTE / ABSOLUTE MONOCYTE / ABSOLUTE SEGMENTED NEUTROPHIL / BASOPHIL / EOSINOPHIL / ERYTHROCYTE COUNT / HEMATOCRIT / HEMOGLOBIN / LEUKOCYTE COUNT / LYMPHOCYTE / MEAN CORPUSCULAR HEMOGLOBIN / MEAN CORPUSCULAR HEMOGLOBIN CONCENTRATION / MEAN CORPUSCULAR VOLUME / MONOCYTE / NEUTROPHIL / NUCLEATED RED BLOOD CELLS / PLATELET COUNT: tissue Blood; for ALANINE AMINOTRANSFERASE / ALBUMIN / ALKALINE PHOSPHATASE / ASPARTATE AMINOTRANSFERASE / BLOOD UREA NITROGEN / CARBON DIOXIDE / CHLORIDE / CHOLESTEROL / CREATINE PHOSPHOKINASE / CREATININE / GLUCOSE / LACTATE DEHYDROGENASE / LIPASE / PHOSPHORUS / POTASSIUM / SODIUM / TOTAL BILIRUBIN / TOTAL PROTEIN / URIC ACID: tissue Plasma
[1] = 10 mg/kg, 120 h, dose level Low, time 5 day
[2] = 230 mg/kg, 72 h, dose level High, time 3 day
[3] = 230 mg/kg, 120 h, dose level High, time 5 day

CCN(CC)CC#CCOC(=O)C(O)(c1ccccc1)C1CCCCC1 (centres undefined) [OXYBUTYNIN]
ABSOLUTE BASOPHIL [1]: 0 CELLS/uL | ABSOLUTE EOSINOPHIL [1]: 0 CELLS/uL | ABSOLUTE LYMPHOCYTE [1]: 12363 CELLS/uL | ABSOLUTE MONOCYTE [1]: 41 CELLS/uL | ABSOLUTE SEGMENTED NEUTROPHIL [1]: 1896 CELLS/uL | BASOPHIL [1]: 0% | EOSINOPHIL [1]: 0% | ERYTHROCYTE COUNT [1]: 5.64 x10E6/uL | HEMATOCRIT [1]: 34.63% | HEMOGLOBIN [1]: 13.8 G/DL | LEUKOCYTE COUNT [1]: 14.3 x10E3/uL | LYMPHOCYTE [1]: 86.33% | MEAN CORPUSCULAR HEMOGLOBIN [1]: 24.47 pg | MEAN CORPUSCULAR HEMOGLOBIN CONCENTRATION [1]: 39.83 G/DL | MEAN CORPUSCULAR VOLUME [1]: 61.4 fL | MONOCYTE [1]: 0.33% | NEUTROPHIL [1]: 13.33% | NUCLEATED RED BLOOD CELLS [1]: 0 /100WBC | PLATELET COUNT [1]: 1196.33 x10E3/uL | ALANINE AMINOTRANSFERASE [1]: 57 u/L | ALBUMIN [1]: 4.07 G/DL | ALKALINE PHOSPHATASE [1]: 391.67 u/L | ASPARTATE AMINOTRANSFERASE [1]: 79 u/L | BLOOD UREA NITROGEN [1]: 17.67 mg/dL | CARBON DIOXIDE [1]: 27 mmol/L | CHLORIDE [1]: 99.67 MEQ/L | CHOLESTEROL [1]: 67 mg/dL | CREATINE PHOSPHOKINASE [1]: 306.33 u/L | CREATININE [1]: 0.2 mg/dL | GLUCOSE [1]: 152.33 mg/dL | LACTATE DEHYDROGENASE [1]: 146.67 u/L | LIPASE [1]: 9 u/L | PHOSPHORUS [1]: 11.87 mg/dL | POTASSIUM [1]: 6.33 MEQ/L | SODIUM [1]: 141.53 MEQ/L | TOTAL BILIRUBIN [1]: 0.23 mg/dL | TOTAL PROTEIN [1]: 5.87 G/DL | URIC ACID [1]: 1.93 mg/dL | ABSOLUTE BASOPHIL [2]: 0 CELLS/uL | ABSOLUTE EOSINOPHIL [2]: 99.33 CELLS/uL | ABSOLUTE LYMPHOCYTE [2]: 11911 CELLS/uL | ABSOLUTE MONOCYTE [2]: 110.67 CELLS/uL | ABSOLUTE SEGMENTED NEUTROPHIL [2]: 1845.67 CELLS/uL | BASOPHIL [2]: 0% | EOSINOPHIL [2]: 0.67% | ERYTHROCYTE COUNT [2]: 6.5 x10E6/uL | HEMATOCRIT [2]: 39.53% | HEMOGLOBIN [2]: 15.4 G/DL | LEUKOCYTE COUNT [2]: 13.97 x10E3/uL | LYMPHOCYTE [2]: 85.67% | MEAN CORPUSCULAR HEMOGLOBIN [2]: 23.7 pg | MEAN CORPUSCULAR HEMOGLOBIN CONCENTRATION [2]: 38.93 G/DL | MEAN CORPUSCULAR VOLUME [2]: 60.77 fL | MONOCYTE [2]: 0.67% | NEUTROPHIL [2]: 13% | NUCLEATED RED BLOOD CELLS [2]: 0 /100WBC | PLATELET COUNT [2]: 1396.33 x10E3/uL | ALANINE AMINOTRANSFERASE [2]: 51.33 u/L | ALBUMIN [2]: 4.33 G/DL | ALKALINE PHOSPHATASE [2]: 293.33 u/L | ASPARTATE AMINOTRANSFERASE [2]: 83.33 u/L | BLOOD UREA NITROGEN [2]: 16 mg/dL | CARBON DIOXIDE [2]: 29.67 mmol/L | CHLORIDE [2]: 98 MEQ/L | CHOLESTEROL [2]: 57.33 mg/dL | CREATINE PHOSPHOKINASE [2]: 488 u/L | CREATININE [2]: 0.18 mg/dL | GLUCOSE [2]: 140.67 mg/dL | LACTATE DEHYDROGENASE [2]: 180 u/L | LIPASE [2]: 9.67 u/L | PHOSPHORUS [2]: 11.4 mg/dL | POTASSIUM [2]: 6.48 MEQ/L | SODIUM [2]: 141.17 MEQ/L | TOTAL BILIRUBIN [2]: 0.23 mg/dL | TOTAL PROTEIN [2]: 5.87 G/DL | URIC ACID [2]: 2.47 mg/dL | ABSOLUTE BASOPHIL [3]: 0 CELLS/uL | ABSOLUTE EOSINOPHIL [3]: 0 CELLS/uL | ABSOLUTE LYMPHOCYTE [3]: 14094.33 CELLS/uL | ABSOLUTE MONOCYTE [3]: 0 CELLS/uL | ABSOLUTE SEGMENTED NEUTROPHIL [3]: 1405.67 CELLS/uL | BASOPHIL [3]: 0% | EOSINOPHIL [3]: 0% | ERYTHROCYTE COUNT [3]: 6.31 x10E6/uL | HEMATOCRIT [3]: 37.53% | HEMOGLOBIN [3]: 15.13 G/DL | LEUKOCYTE COUNT [3]: 15.5 x10E3/uL | LYMPHOCYTE [3]: 90.67% | MEAN CORPUSCULAR HEMOGLOBIN [3]: 23.97 pg | MEAN CORPUSCULAR HEMOGLOBIN CONCENTRATION [3]: 40.33 G/DL | MEAN CORPUSCULAR VOLUME [3]: 59.43 fL | MONOCYTE [3]: 0% | NEUTROPHIL [3]: 9.33% | NUCLEATED RED BLOOD CELLS [3]: 0 /100WBC | PLATELET COUNT [3]: 1402.33 x10E3/uL | ALANINE AMINOTRANSFERASE [3]: 64.67 u/L | ALBUMIN [3]: 4.33 G/DL | ALKALINE PHOSPHATASE [3]: 412.33 u/L | ASPARTATE AMINOTRANSFERASE [3]: 87 u/L | BLOOD UREA NITROGEN [3]: 15.67 mg/dL | CARBON DIOXIDE [3]: 26.67 mmol/L | CHLORIDE [3]: 100.33 MEQ/L | CHOLESTEROL [3]: 59.67 mg/dL | CREATINE PHOSPHOKINASE [3]: 224 u/L | CREATININE [3]: 0.17 mg/dL | GLUCOSE [3]: 140.33 mg/dL | LACTATE DEHYDROGENASE [3]: 208.33 u/L | LIPASE [3]: 9.33 u/L | PHOSPHORUS [3]: 10 mg/dL | POTASSIUM [3]: 6.76 MEQ/L | SODIUM [3]: 143.4 MEQ/L | TOTAL BILIRUBIN [3]: 0.2 mg/dL | TOTAL PROTEIN [3]: 5.9 G/DL | URIC ACID [3]: 2.23 mg/dL
